Source: patent US11235023B2, “Beta-hairpin peptidomimetic with elastase inhibitory activity and aerosol dosage forms thereof” (POLYPHOR AG, priority 2016, dated 2022)
Non-standard residues stand in square brackets, D forms with d. Residues, ends and D or L forms follow the SMILES beside them. Gly(octyl) = CCCCCCCC[C@H](N)C(=O)O

What was measured:
[1] = Phase-Ib study in CF patients, sputum concentrations (LC-MS/MS); assay type: in vivo, human
Procedure: Concentrations of active compound in sputum were calculated and Cmax and AUC0-tlast were determined.
Spontaneous sputum samples for PK assessments were collected during the following time intervals/periods:
On Day −1 as soon as possible after the subject's arrival at the study site (blank PK), on Day 1 in the period of time between 1 h and 3 h after start of inhalation, and in the morning of Day 2, at approx. 24 h after start of inhalation. Moreover, any spontaneous sputum expectoration between 0-1 h after start of inhalation was collected.
Spontaneous sputum samples were collected in polystyrene Petri dishes and put on ice immediately. All processing steps had to be performed with cold reagents and on ice whenever possible. Plugs were separated from saliva, but the latter was not discarded. If a sputum sample was taken for both PK and neutrophil elastase activity in sputum analysis, the plug was split in 2 approximately equal parts. One part was processed for PK analysis the other one for evaluation of neutrophil elastase activity in sputum.
For PK processing, the resulting plug was split in approximately 2 equal parts. […] The weight of the sputum samples (SP1+SP3) was determined and all samples were immediately put on dry ice for freezing. […]
The pharmacokinetic parameters mentioned above were calculated based on actual blood and sputum sampling times using non-compartmental procedures.

[2] = GLP-compliant 28-day inhalation toxicity study in monkeys; assay type: in vivo, cynomolgus monkey
Procedure: In a GLP-compliant 28-day inhalation toxicity study in cynomolgus monkeys, conducted by Charles River Laboratories Preclinical Services, Tranent, Edinburgh, UK, the formulation described in Example 2 and dilutions thereof as well as the vehicle were administered using the Pari eFlow® XL 30 nebulizer device (Pari Pharma, Starnberg, Germany) with an oro-nasal inhalation mask for 60 min per day for 28 days, followed by a 2-week recovery period. […] In total five males and five females were used for each dose of the toxicity study including recovery. Parameters assessed included clinical signs, body weights, electrocardiology, ophthalmic examination, clinical pathology, toxicokinetic parameters in the plasma, gross necropsy findings, organ weights and histopathologic examinations.

**Q.** Which “Detection in sputum at 24 h after inhalation” value ([1]; all dose groups) does the source give for `CCCCCCCC[C@@H]1NC(=O)[C@@H]2CCCN2C(=O)[C@H]2CCCN2C(=O)[C@H](Cc2ccc(O)cc2)NC(=O)[C@H](CCCCN)NC(=O)[C@H](CCC(N)=O)NC(=O)[C@@H]2CCCN2C(=O)[C@@H]2CCCN2C(=O)[C@H]([C@@H](C)CC)NC(=O)[C@H](CO)NC(=O)[C@H](C)NC(=O)[C@H]([C@@H](C)O)NC(=O)[C@H](CCC(=O)O)NC1=O` [active compound, cyclo(-OctG-Glu-Thr-Ala-Ser-Ile-Pro-Pro-Gln-Lys-Tyr-^DPro-Pro-)] (cyclo([Gly(octyl)]ETASIPPQKY[dP]P)) here?
**A.** still detected

**Q.** What about the “Concentration in sputum relative to plasma” value ([1]; comparison of FIG. 4 and FIG. 3) of the same molecule?
**A.** approximately 10^3 fold

**Q.** And the NOAEL at 28 days ([2]; both sexes, in vivo, inhaled or intranasal, cynomolgus monkey, oro-nasal inhalation 60 min per day for 28 days)?
**A.** 112 mg/kg/day

**Q.** And the “Haematology and clinical pathology” value ([2]; cynomolgus monkey, in vivo)?
**A.** some minor, toxicologically insignificant changes

**Q.** And the Histopathologic findings ([2]; cynomolgus monkey, in vivo)?
**A.** increased numbers of alveolar macrophages, perivascular/peribronchiolar infiltrates, and granular eosinophilic deposits in the lung and lymphoid hyperplasia in the tracheobronchial lymph nodes

**Q.** And the “Gross findings: lung weight” value ([2]; male monkeys at 112 mg/kg/day)?
**A.** increased lung weight

**Q.** What about the “Body weight, clinical signs, ophthalmic, electrocardiographic and urinary findings” value ([2]; monkey, 11.2, 30.1 and 112 mg/kg/day) of the same molecule?
**A.** no body weight changes, clinical signs, ophthalmic or electrocardiographic findings or changes in urinary parameters attributable to drug treatment
